In US8889676B2, “3-ureidoisoquinolin-8-yl derivatives” (Actelion Pharmaceuticals Ltd., priority 2011, dated 2014):
Values after ≈ are worked out from the molar mass of the structure shown.

tested on: S. pneumoniae ATCC 49619; assay: Minimal inhibitory concentration (MIC) by broth microdilution (CLSI M7-A7); assay type: cell-based, Streptococcus pneumoniae; conditions: Streptococcus pneumoniae, ATCC49619; cation-adjusted Mueller Hinton Broth supplemented with 3% (v/v) lysed horse blood; microdilution method
Procedure, shortened: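 Broth microdilution per CLSI M7-A7 in cation-adjusted Mueller-Hinton broth with 3% (v/v) lysed horse blood for S. pneumoniae. MIC in mg/l.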

| Structure (SMILES) | MIC |
| --- | --- |
| CCNC(=O)Nc1cc2c(-c3ccncc3)ccc(CNC(=O)OCCO)c2cn1 [Example 107, [3-(3-ethyl-ureido)-5-pyridin-4-yl-isoquinolin-8-ylmethyl]-carbamic acid 2-hydroxy-ethyl ester] | 1 µg/mL (≈ 2.44 µM) |
| CCNC(=O)Nc1cc2c(-c3ccncc3)ccc(CNC(=O)OCCCN3CCOCC3)c2cn1 [Example 110, [3-(3-ethyl-ureido)-5-pyridin-4-yl-isoquinolin-8-ylmethyl]-carbamic acid 3-morpholin-4-yl-propyl ester] | 2 µg/mL (≈ 4.06 µM) |
| CCNC(=O)Nc1cc2c(Cl)ccc(CNC(=O)OCCOC)c2cn1 [Example 111, [5-chloro-3-(3-ethyl-ureido)-isoquinolin-8-ylmethyl]-carbamic acid 2-methoxy-ethyl ester] | 0.5 µg/mL (≈ 1.31 µM) |
| C#CCOC(=O)NCc1ccc(Cl)c2cc(NC(=O)NCC)ncc12 [Example 112, [5-chloro-3-(3-ethyl-ureido)-isoquinolin-8-ylmethyl]-carbamic acid prop-2-ynyl ester] | 0.5 µg/mL (≈ 1.39 µM) |
| CCNC(=O)Nc1cc2c(Cl)ccc(CNC(=O)OC(C)(C)C)c2cn1 [Example 113, [5-chloro-3-(3-ethyl-ureido)-isoquinolin-8-ylmethyl]-carbamic acid tert-butyl ester] | 1 µg/mL (≈ 2.64 µM) |
| CCNC(=O)Nc1cc2c(-c3ccncc3)ccc(CNC(=O)OCCOC)c2cn1 [Example 114, [3-(3-ethyl-ureido)-5-pyridin-4-yl-isoquinolin-8-ylmethyl]-carbamic acid 2-methoxy-ethyl ester] | 0.5 µg/mL (≈ 1.18 µM) |
| CCNC(=O)Nc1cc2c(-c3ccnc(N)c3)ccc(CNC(=O)OCCOC)c2cn1 [Example 115, [5-(2-amino-pyridin-4-yl)-3-(3-ethyl-ureido)-isoquinolin-8-ylmethyl]-carbamic acid 2-methoxy-ethyl ester] | 2 µg/mL (≈ 4.56 µM) |
| CCNC(=O)Nc1cc2c(-c3cc(C)nc(C)c3)ccc(CNC(=O)OCCOC)c2cn1 [Example 116, [5-(2,6-dimethyl-pyridin-4-yl)-3-(3-ethyl-ureido)-isoquinolin-8-ylmethyl]-carbamic acid 2-methoxy-ethyl ester] | 1 µg/mL (≈ 2.21 µM) |
| CCNC(=O)Nc1cc2c(-c3ccnc(OC)c3)ccc(CNC(=O)OCCOC)c2cn1 [Example 117, [3-(3-ethyl-ureido)-5-(2-methoxy-pyridin-4-yl)-isoquinolin-8-ylmethyl]-carbamic acid 2-methoxy-ethyl ester] | 1 µg/mL (≈ 2.21 µM) |
| CCNC(=O)Nc1cc2c(-c3ccnc(F)c3)ccc(CNC(=O)OCCOC)c2cn1 [Example 118, [3-(3-ethyl-ureido)-5-(2-fluoro-pyridin-4-yl)-isoquinolin-8-ylmethyl]-carbamic acid 2-methoxy-ethyl ester] | 0.5 µg/mL (≈ 1.13 µM) |
| C#CCOC(=O)NCc1ccc(-c2ccnnc2)c2cc(NC(=O)NCC)ncc12 [Example 127, [3-(3-ethyl-ureido)-5-pyridazin-4-yl-isoquinolin-8-ylmethyl]-carbamic acid prop-2-ynyl ester] | 8 µg/mL (≈ 19.8 µM) |
| C#CCOC(=O)NCc1ccc(-c2ccc(N)nc2)c2cc(NC(=O)NCC)ncc12.Cl [Example 131, [5-(6-amino-pyridin-3-yl)-3-(3-ethyl-ureido)-isoquinolin-8-ylmethyl]-carbamic acid prop-2-ynyl ester hydrochloride] | 0.5 µg/mL |
| C#CCOC(=O)NCc1ccc(-c2cccc(CNC(C)=O)c2)c2cc(NC(=O)NCC)ncc12.Cl [Example 132, {5-[3-(acetylamino-methyl)-phenyl]-3-(3-ethyl-ureido)-isoquinolin-8-ylmethyl}-carbamic acid prop-2-ynyl ester hydrochloride] | 4 µg/mL |
| C#CCOC(=O)NCc1ccc(-c2cccc(C(N)=O)c2)c2cc(NC(=O)NCC)ncc12.Cl [Example 136, [5-(3-carbamoyl-phenyl)-3-(3-ethyl-ureido)-isoquinolin-8-ylmethyl]-carbamic acid prop-2-ynyl ester hydrochloride] | 2 µg/mL |
| C#CCOC(=O)NCc1ccc(-c2ccc(O)cc2)c2cc(NC(=O)NCC)ncc12.Cl [Example 138, [3-(3-ethyl-ureido)-5-(4-hydroxy-phenyl)-isoquinolin-8-ylmethyl]-carbamic acid prop-2-ynyl ester hydrochloride] | 0.5 µg/mL |
| C#CCOC(=O)NCc1ccc(-c2ccccc2O)c2cc(NC(=O)NCC)ncc12.Cl [Example 139, [3-(3-ethyl-ureido)-5-(2-hydroxy-phenyl)-isoquinolin-8-ylmethyl]-carbamic acid prop-2-ynyl ester hydrochloride] | 1 µg/mL |
| C#CCOC(=O)NCc1ccc(-c2ccc(CO)nc2)c2cc(NC(=O)NCC)ncc12.Cl [Example 142, [3-(3-ethyl-ureido)-5-(6-hydroxymethyl-pyridin-3-yl)-isoquinolin-8-ylmethyl]-carbamic acid prop-2-ynyl ester hydrochloride] | 1 µg/mL |

The remaining lines, values ahead:

| MIC | Structure (SMILES) |
| --- | --- |
| 0.25 µg/mL (≈ 0.577 µM) | CCNC(=O)Nc1cc2c(-c3ccncc3)ccc(CNC(=O)OCC#CCO)c2cn1 [Example 106, [3-(3-ethyl-ureido)-5-pyridin-4-yl-isoquinolin-8-ylmethyl]-carbamic acid 4-hydroxy-but-2-ynyl ester] |
| 2 µg/mL (≈ 4.62 µM) | CCNC(=O)Nc1cc2c(-c3ccncc3)ccc(CNC(=O)OCC#CCN)c2cn1 [Example 109, [3-(3-ethyl-ureido)-5-pyridin-4-yl-isoquinolin-8-ylmethyl]-carbamic acid 4-amino-but-2-ynyl ester] |
| 0.5 µg/mL (≈ 1.14 µM) | CCNC(=O)Nc1cc2c(-c3ccnc(C)c3)ccc(CNC(=O)OCCOC)c2cn1 [Example 119, [3-(3-ethyl-ureido)-5-(2-methyl-pyridin-4-yl)-isoquinolin-8-ylmethyl]-carbamic acid 2-methoxy-ethyl ester] |
| 1 µg/mL (≈ 2.23 µM) | CCNC(=O)Nc1cc2c(-c3ccnc(C#N)c3)ccc(CNC(=O)OCCOC)c2cn1 [Example 120, [5-(2-cyano-pyridin-4-yl)-3-(3-ethyl-ureido)-isoquinolin-8-ylmethyl]-carbamic acid 2-methoxy-ethyl ester] |
| 1 µg/mL (≈ 2.29 µM) | CCNC(=O)Nc1cc2c(-c3ccncc3C)ccc(CNC(=O)OCCOC)c2cn1 [Example 121, [3-(3-ethyl-ureido)-5-(3-methyl-pyridin-4-yl)-isoquinolin-8-ylmethyl]-carbamic acid 2-methoxy-ethyl ester] |
| 4 µg/mL (≈ 8.82 µM) | CCNC(=O)Nc1cc2c(-c3ccnc(CO)c3)ccc(CNC(=O)OCCOC)c2cn1 [Example 122, [3-(3-ethyl-ureido)-5-(2-hydroxymethyl-pyridin-4-yl)-isoquinolin-8-ylmethyl]-carbamic acid 2-methoxy-ethyl ester] |
| 0.5 µg/mL (≈ 1.18 µM) | CCNC(=O)Nc1cc2c(-c3ccnnc3)ccc(CNC(=O)OC(C)(C)C)c2cn1 [Example 124, [3-(3-ethyl-ureido)-5-pyridazin-4-yl-isoquinolin-8-ylmethyl]-carbamic acid tert-butyl ester] |
| 1 µg/mL | C#CCOC(=O)NCc1ccc(-c2cccnc2)c2cc(NC(=O)NCC)ncc12.Cl [Example 125, [3-(3-ethyl-ureido)-5-pyridin-3-yl-isoquinolin-8-ylmethyl]-carbamic acid prop-2-ynyl ester hydrochloride] |
| 1 µg/mL (≈ 2.4 µM) | C#CCOC(=O)NCc1ccc(-c2ccncc2C)c2cc(NC(=O)NCC)ncc12 [Example 126, [3-(3-ethyl-ureido)-5-(3-methyl-pyridin-4-yl)-isoquinolin-8-ylmethyl]-carbamic acid prop-2-ynyl ester] |
| 1 µg/mL (≈ 2.33 µM) | C#CCOC(=O)NCc1ccc(-c2ccnc(C#N)c2)c2cc(NC(=O)NCC)ncc12 [Example 128, [5-(2-cyano-pyridin-4-yl)-3-(3-ethyl-ureido)-isoquinolin-8-ylmethyl]-carbamic acid prop-2-ynyl ester] |
| 0.5 µg/mL (≈ 1.34 µM) | C#CC(=O)NCc1ccc(-c2ccnnc2)c2cc(NC(=O)NCC)ncc12 [Example 129, propynoic acid [3-(3-ethyl-ureido)-5-pyridazin-4-yl-isoquinolin-8-ylmethyl]-amide] |
| 0.5 µg/mL (≈ 1.2 µM) | CCNC(=O)Nc1cc2c(-c3ccncc3)ccc(CNC(=O)CCC3CC3)c2cn1 [Example 130, 3-cyclopropyl-N-[3-(3-ethyl-ureido)-5-pyridin-4-yl-isoquinolin-8-ylmethyl]-propionamide] |
| 0.5 µg/mL | C#CCOC(=O)NCc1ccc(-c2cccc(O)c2)c2cc(NC(=O)NCC)ncc12.Cl [Example 133, [3-(3-ethyl-ureido)-5-(3-hydroxy-phenyl)-isoquinolin-8-ylmethyl]-carbamic acid prop-2-ynyl ester hydrochloride] |
| 4 µg/mL | C#CCOC(=O)NCc1ccc(-c2cccc(CC(=O)O)c2)c2cc(NC(=O)NCC)ncc12.Cl [Example 135, {3-[3-(3-ethyl-ureido)-8-(prop-2-ynyloxycarbonylamino-methyl)-isoquinolin-5-yl]-phenyl}-acetic acid hydrochloride] |
| 0.25 µg/mL | C#CCOC(=O)NCc1ccc(-c2ccc(C(=O)O)cc2)c2cc(NC(=O)NCC)ncc12.Cl [Example 137, 4-[3-(3-ethyl-ureido)-8-(prop-2-ynyloxycarbonylamino-methyl)-isoquinolin-5-yl]-benzoic acid hydrochloride] |
| 1 µg/mL | C#CCOC(=O)NCc1ccc(-c2cncnc2)c2cc(NC(=O)NCC)ncc12.Cl [Example 140, [3-(3-ethyl-ureido)-5-pyrimidin-5-yl-isoquinolin-8-ylmethyl]-carbamic acid prop-2-ynyl ester hydrochloride] |
| 0.25 µg/mL | C#CCOC(=O)NCc1ccc(-c2ccc(C(N)=O)cc2)c2cc(NC(=O)NCC)ncc12.Cl [Example 141, [5-(4-carbamoyl-phenyl)-3-(3-ethyl-ureido)-isoquinolin-8-ylmethyl]-carbamic acid prop-2-ynyl ester hydrochloride] |

same assay, conditions: cation-adjusted Mueller Hinton Broth supplemented with 3% (v/v) lysed horse blood; microdilution method

| Structure (SMILES) | MIC for S. pneumoniae ATCC 49619 |
| --- | --- |
| CCNC(=O)Nc1cc2c(-c3ccnc(CN4CCOCC4)c3)ccc(CNC(=O)OCCOC)c2cn1 [Example 123, {3-(3-ethyl-ureido)-5-[(2-morpholin-4-ylmethyl)-pyridin-4-yl]-isoquinolin-8-ylmethyl}-carbamic acid 2-methoxy-ethyl ester] | 8 µg/mL |
